According to publication PMC6832352, “Synthesis and Glycosidase Inhibition of Broussonetine M and Its Analogues” (Molecules, 2019):
Like-named read-outs stand apart in the source and are kept apart here.

How the values were obtained:
β-Glucuronidase = molecular target: T1, β-Glucuronidase (Bos taurus, UniProt A3KMY8); test: glycosidase inhibition assay, bovine liver β-glucuronidase; format: biochemical; conditions: for IC50: β-Glucuronidase, Bovine liver
T1 construct: purchased Sigma-Aldrich Chemical Co; host or cells: bovine liver
T1 sequence (A3KMY8 1-652): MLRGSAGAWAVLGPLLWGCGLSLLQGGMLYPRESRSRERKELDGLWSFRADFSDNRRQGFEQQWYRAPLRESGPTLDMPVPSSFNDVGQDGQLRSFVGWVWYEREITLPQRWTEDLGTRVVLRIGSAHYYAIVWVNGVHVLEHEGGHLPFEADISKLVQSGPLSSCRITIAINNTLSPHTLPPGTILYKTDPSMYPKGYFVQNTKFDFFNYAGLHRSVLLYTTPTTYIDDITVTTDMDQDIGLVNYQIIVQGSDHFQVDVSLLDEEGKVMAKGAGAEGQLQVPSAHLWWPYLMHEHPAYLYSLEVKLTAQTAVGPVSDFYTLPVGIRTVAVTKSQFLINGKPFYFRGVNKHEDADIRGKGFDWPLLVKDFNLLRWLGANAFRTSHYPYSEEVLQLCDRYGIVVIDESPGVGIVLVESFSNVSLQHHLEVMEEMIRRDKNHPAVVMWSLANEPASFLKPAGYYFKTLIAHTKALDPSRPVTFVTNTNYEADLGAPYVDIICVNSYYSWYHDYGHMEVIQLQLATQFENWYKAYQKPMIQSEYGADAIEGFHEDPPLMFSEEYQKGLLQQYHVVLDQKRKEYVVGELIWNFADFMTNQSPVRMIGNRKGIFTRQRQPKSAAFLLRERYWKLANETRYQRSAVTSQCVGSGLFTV
Protocol: (§1) With rat intestinal maltase as an exception, other enzymes were purchased from Sigma-Aldrich Chemical Co. (St. Louis, Mo. USA). Brush border membranes prepared from rat small intestine according to the method of Kessler et al. were assayed at pH 6.8 for rat intestinal maltase using maltose. The released D-glucose was determined colorimetrically using the Glucose CII-test Wako (Wako Pure Chemical Ind.; Osaka, Japan). Other glycosidase activities were determined using an appropriate p-nitrophenyl glycoside as substrate in a buffer solution at the optimal pH value of each enzyme. The reaction was stopped by adding 400 mM Na2CO3. The released p-nitrophenol was measured spectrometrically at 400 nm.

α-Glucosidase = molecular target: T2, α-Glucosidase (Oryza sativa subsp. japonica, UniProt Q653V7); test: glycosidase inhibition assay, rice α-glucosidase; format: biochemical; conditions: for inhibition at 100 µM: α-Glucosidase, Rice
T2 construct: purchased Sigma-Aldrich Chemical Co
Protocol: as §1

α,α-Trehalase = molecular target: T3, α,α-Trehalase (Sus scrofa, UniProt I3LIR5); test: glycosidase inhibition assay, porcine kidney α,α-trehalase; format: biochemical
T3 sequence (I3LIR5 24-556): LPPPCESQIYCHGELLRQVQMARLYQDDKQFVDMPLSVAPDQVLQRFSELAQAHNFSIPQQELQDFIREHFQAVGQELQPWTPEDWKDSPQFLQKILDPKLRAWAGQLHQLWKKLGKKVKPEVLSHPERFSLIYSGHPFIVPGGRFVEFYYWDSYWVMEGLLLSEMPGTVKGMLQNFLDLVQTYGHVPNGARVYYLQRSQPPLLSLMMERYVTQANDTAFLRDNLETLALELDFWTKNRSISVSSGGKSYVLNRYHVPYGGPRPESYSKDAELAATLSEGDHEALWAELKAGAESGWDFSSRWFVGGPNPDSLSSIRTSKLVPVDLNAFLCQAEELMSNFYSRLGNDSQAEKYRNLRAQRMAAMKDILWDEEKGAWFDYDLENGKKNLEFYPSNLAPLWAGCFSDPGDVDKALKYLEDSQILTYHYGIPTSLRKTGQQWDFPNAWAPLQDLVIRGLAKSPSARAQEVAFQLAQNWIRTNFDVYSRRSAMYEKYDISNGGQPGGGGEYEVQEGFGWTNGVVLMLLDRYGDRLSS
Protocol: as §1

β-Galactosidase [1] = conditions: β-galactosidase from bovine liver; natural product isolated by Kusano’s group; cited from earlier work
β-Galactosidase [2] = test: glycosidase inhibition assay, bovine liver β-galactosidase; format: biochemical
Protocol: as §1

α-L-Fucosidase = molecular target: T4, α-L-Fucosidase (Bos taurus, UniProt Q2KIM0); test: glycosidase inhibition assay, bovine kidney α-L-fucosidase; format: biochemical
T4 construct: purchased Sigma-Aldrich Chemical Co; host or cells: bovine kidney
T4 sequence (Q2KIM0 23-468): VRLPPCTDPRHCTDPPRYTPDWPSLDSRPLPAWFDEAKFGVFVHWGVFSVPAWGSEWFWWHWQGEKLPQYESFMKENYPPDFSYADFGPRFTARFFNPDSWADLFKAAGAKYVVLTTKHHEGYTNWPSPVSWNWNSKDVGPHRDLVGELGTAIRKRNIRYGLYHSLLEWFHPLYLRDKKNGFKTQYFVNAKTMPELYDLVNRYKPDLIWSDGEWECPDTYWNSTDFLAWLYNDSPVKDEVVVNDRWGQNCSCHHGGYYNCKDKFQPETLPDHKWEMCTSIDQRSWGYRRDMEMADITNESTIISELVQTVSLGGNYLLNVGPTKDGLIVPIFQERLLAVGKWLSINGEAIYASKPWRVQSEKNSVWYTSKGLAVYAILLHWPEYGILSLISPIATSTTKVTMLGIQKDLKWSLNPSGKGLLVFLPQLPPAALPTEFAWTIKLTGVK
Protocol: as §1

β-Glucosidase [3] = test: glycosidase inhibition assay, almond β-glucosidase; format: biochemical; conditions: for inhibition %: at 100 μM
Protocol: as §1

β-Glucosidase [4] = molecular target: T5, β-Glucosidase (Bos taurus, UniProt F1MNT6); test: glycosidase inhibition assay, bovine liver β-glucosidase; format: biochemical
T5 sequence (F1MNT6 1-469): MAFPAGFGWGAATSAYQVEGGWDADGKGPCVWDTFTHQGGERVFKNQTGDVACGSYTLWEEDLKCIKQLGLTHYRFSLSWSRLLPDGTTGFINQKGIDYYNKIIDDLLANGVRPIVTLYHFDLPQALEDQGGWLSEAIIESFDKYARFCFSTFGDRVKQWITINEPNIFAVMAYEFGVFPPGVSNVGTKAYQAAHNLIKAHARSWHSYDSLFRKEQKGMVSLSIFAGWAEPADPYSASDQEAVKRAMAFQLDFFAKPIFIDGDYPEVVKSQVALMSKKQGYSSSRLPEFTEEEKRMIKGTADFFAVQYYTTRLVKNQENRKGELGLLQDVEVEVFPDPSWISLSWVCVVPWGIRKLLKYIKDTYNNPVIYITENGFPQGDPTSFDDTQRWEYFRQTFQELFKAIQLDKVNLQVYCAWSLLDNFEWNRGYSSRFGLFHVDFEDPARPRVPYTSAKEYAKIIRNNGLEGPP
Protocol: as §1

T2 sequence (Q653V7 34-885): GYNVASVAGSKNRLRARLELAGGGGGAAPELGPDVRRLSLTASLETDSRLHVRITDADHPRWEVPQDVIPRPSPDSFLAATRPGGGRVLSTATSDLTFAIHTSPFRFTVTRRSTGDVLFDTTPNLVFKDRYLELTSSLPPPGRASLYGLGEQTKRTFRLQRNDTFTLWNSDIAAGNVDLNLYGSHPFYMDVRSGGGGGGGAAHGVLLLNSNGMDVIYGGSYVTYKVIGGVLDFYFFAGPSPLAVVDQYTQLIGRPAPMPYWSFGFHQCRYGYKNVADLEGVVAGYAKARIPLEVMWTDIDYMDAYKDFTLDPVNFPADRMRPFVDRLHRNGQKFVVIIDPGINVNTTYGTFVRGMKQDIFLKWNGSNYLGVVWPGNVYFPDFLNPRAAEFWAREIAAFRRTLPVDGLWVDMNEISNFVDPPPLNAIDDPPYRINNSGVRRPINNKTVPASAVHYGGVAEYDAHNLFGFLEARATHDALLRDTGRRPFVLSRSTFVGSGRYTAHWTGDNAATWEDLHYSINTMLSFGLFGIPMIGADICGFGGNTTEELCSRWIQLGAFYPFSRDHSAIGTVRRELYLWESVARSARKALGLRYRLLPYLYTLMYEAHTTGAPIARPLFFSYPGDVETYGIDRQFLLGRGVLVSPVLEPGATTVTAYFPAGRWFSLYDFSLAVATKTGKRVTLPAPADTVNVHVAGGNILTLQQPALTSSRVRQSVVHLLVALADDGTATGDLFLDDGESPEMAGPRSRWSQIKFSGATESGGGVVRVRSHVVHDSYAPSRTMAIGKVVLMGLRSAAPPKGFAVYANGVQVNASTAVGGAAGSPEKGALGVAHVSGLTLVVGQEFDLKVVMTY

Compound | inhibition at 100 µM (β-Glucuronidase) | IC50 (β-Glucuronidase) | IC50 (α-Glucosidase) | inhibition at 100 µM (α-Glucosidase) | inhibition at 100 µM (α,α-Trehalase) | IC50 (β-Galactosidase [1]) | IC50 (β-Galactosidase [2]) | IC50 (α-L-Fucosidase) | inhibition at 100 µM (α-L-Fucosidase) | IC50 (β-Glucosidase [3]) | inhibition % (β-Glucosidase [3]) | inhibition at 100 µM (β-Glucosidase [4])
OCCC[C@@H](O)CCCCCCCCC[C@H]1N[C@H](CO)[C@@H](O)[C@@H]1O [compound 3, (2R,3R,4R,5R)-2-hydroxymethyl-3,4-dihydroxyl-5-((10R)-10,13-(dihydroxyl)dec-1-yl)pyrrolidine] | 18.4% | > 100 µM | > 100 µM | 0% | 0% | 8.1 µM | 2.3 µM | > 100 µM | 0% | > 100 µM | 10.0% | –
OCCC[C@@H](O)CCCCCCCCC[C@@H]1N[C@@H](CO)[C@H](O)[C@H]1O [ent-10’-epi-3] | 14.9% | > 100 µM | 1.3 µM | – | 0% | – | 9 µM | > 100 µM | 6.1% | > 100 µM | 8.0% | –
OCCC[C@H](O)CCCCCCCCC[C@@H]1N[C@@H](CO)[C@H](O)[C@H]1O [ent-3, (2S,3S,4S,5S)-2-hydroxymethyl-3,4-dihydroxyl-5-((10S)-10,13-(dihydroxyl)dec-1-yl) pyrrolidine] | 2.3% | > 100 µM | 1.2 µM | – | 2.1% | – | 50 µM | > 100 µM | 0% | > 100 µM | 9.6% | 46.5%
OCCC[C@@H](O)CCCCCCCCC[C@H]1N[C@@H](CO)[C@@H](O)[C@@H]1O [2-epi-3, (2S,3R,4R,5R)-2-hydroxymethyl-3,4-dihydroxyl-5-((10R)-10,13-(dihydroxyl)dec-1-yl) pyrrolidine] | 5.2% | > 100 µM | > 100 µM | 5.6% | 0% | – | 7.4 µM | > 100 µM | 4.3% | > 100 µM | 8.6% | –
OCCC[C@H](O)CCCCCCCCC[C@@H]1N[C@@H](CO)[C@@H](O)[C@H]1O [ent-3-epi-3, (2S,3R,4S,5S)-2-hydroxymethyl-3,4-dihydroxyl-5-((10S)-10,13-(dihydroxyl)dec-1-yl) pyrrolidine] | 0% | > 100 µM | > 100 µM | 23% | 0% | – | 41 µM | 50 µM | – | > 100 µM | 4.6% | –
OCCC[C@@H](O)CCCCCCCCC[C@@H]1N[C@@H](CO)[C@@H](O)[C@H]1O [ent-3,10-di-epi-3] | 14.9% | > 100 µM | > 100 µM | 9.5% | 3.8% | – | 31 µM | 98 µM | – | > 100 µM | 7.3% | –
OCCC[C@H](O)CCCCCCCCC[C@H]1N[C@H](CO)[C@@H](O)[C@@H]1O [10’-epi-3, (2R,3R,4R,5R)-2-hydroxymethyl-3,4-dihydroxyl-5-((10S)-10,13-(dihydroxyl)dec-1-yl) pyrrolidine] | 17.2% | > 100 µM | > 100 µM | 0% | 0% | – | 0.2 µM | > 100 µM | 0% | > 100 µM | 29.1% | –
OCCCC(O)CCCCCCCCCC1NC(CO)C(O)C1O [2,10-di-epi-3, (2S,3R,4R,5R)-2-hydroxymethyl-3,4-dihydroxyl-5-((10S)-10,13-(dihydroxyl)dec-1-yl) pyrrolidine] | 1.7% | > 100 µM | 12 µM | – | 0% | – | 13 µM | > 100 µM | 10.8% | > 100 µM | 10.9% | –
